In one series the test system is OCT2 and MATE1. To be noted: for Prediction of SCr increase, Cmax,u: based on Cmax,u (Kp,uu assumed 1), mean ± S.D. (n = 11 subjects' parameters from ref 10); for Prediction of SCr increase, Cmax,u · Kp,uu: based on Cmax,u with Kp,uu incorporated; for Prediction of SCr increase, Cmax,u · Kp,uu / Prediction of SCr increase, Ctrough,u / Prediction of SCr increase, Ctrough,u · Kp,uu: mean ± S.D. (n = 11); for Prediction of SCr increase, Ctrough,u: based on Ctrough,u (Kp,uu assumed 1); for Prediction of SCr increase, Ctrough,u · Kp,uu: based on Ctrough,u with Kp,uu incorporated. The text has this:
In this model, the intrinsic clearances of OCT2 and MATE1 were assumed to be equal. When MATE1 inhibition was predicted from the Cmax,u of drugs, Kp,uu was assumed to be 1.

The conditions of series [1]: patients treated with crizotinib, n = 38, 95% CI 21.3–[…]; cited from earlier work.
Details of series [2]: method as in earlier work. To be noted: 34-43 (per drug), cited from earlier work; for Ctrough: trough plasma concentration, clinical dosing as in table footnote; for t1/2: clinical half-life; for Cmax: maximum plasma concentration, clinical dosing: crizotinib 250 mg twice a day, gefitinib 250 mg, imatinib 400 mg, pazopanib 800 mg, sorafenib 400 mg, sunitinib 50 mg once a day.

Details of series [3]: method as in earlier work. The following applies: unbound fraction in plasma; 34-43 (per drug); cited from earlier work.
Series [4] in a line: Clinical plasma pharmacokinetic parameters of TKIs. To be noted: for Cmax,u: calculated unbound plasma concentration (Cmax x fu) from cited clinical parameters; for Ctrough,u: calculated unbound trough plasma concentration from cited clinical parameters. The series is classed as in vivo, human. The source says:
Table 2 Pharmacokinetic parameters and obtained IC50, Ki, and Kp,uu values of TKIs. | column: Cmax,u (μM) Ctrough,u (μM)

Another series deals with creatinine transporters. To be noted: cited from earlier work.
A short description of series [5]: Tissue accumulation (Kp,uu) of TKIs in rat kidney slices. To be noted: male, Wistar, rat kidney slices (0.3 mm thick), pH 7.4, TKI 1 μM, 120 min, C/M ratio 37 °C / 4 °C, mean ± S.E.M. (n = 3 or 4). Type of series: in vitro ADME. The protocol: Male Wistar rats (180 ± 10 g body weight) were purchased from Japan SLC (Hamamatsu, Japan). Rats were housed three per cage with free access to commercial chow and tap water, and were maintained on a 12 h dark/light cycle in an air-controlled room (temperature, 24.0 ± 1 °C; humidity, 55 ± 5%).
Uptake study by rat kidney slices was carried out as described previously, with slight modifications. Whole kidneys of male rats were sliced (0.3 mm thick) with a microslicer (Zero 1; Dosaka EM, Kyoto, Japan). […] Three or four slices per rat, each weighing 5 to 20 mg, were randomly selected and pre-incubated in a 12-well plate with 2.0 ml/well of oxygenated transport buffer at 37 °C for 5 min. After pre-incubation, the kidney slices were placed in transport buffer containing TKIs to initiate the uptake reaction. After uptake at 37 °C for an appropriate time, each slice was rapidly removed from the transport buffer, washed twice in ice-cold transport buffer, blotted on filter paper and weighed. Non-specific adsorption of each substrate was estimated as the absorption on a slice incubated at 4 °C for 1 min. The tissue accumulation of TKIs was measured by liquid chromatography-tandem mass spectrometry (LC-MS/MS) as described below.
The unbound renal proximal tubule epithelial cell-to-medium concentration ratio (Kp,uu) based on the steady-state uptake at 37 °C and 4 °C was defined according to Eq. (4);4 Kp,uu=C/Mratioss,37 °C/C/Mratioss,4 °C
Kp,uu was calculated by dividing C/Mratioss,37 °C by the mean value of C/Mratioss,4 °C .

For the next series, the target named is T1, MATE2K (Homo sapiens, UniProt Q86VL8).
T1 construct: expressed in transfected cells; host or cells: HEK293
Briefly: Uptake of MPP+ by HEK293/MATE2K and mock cells. Type of series: cell-based. The protocol:
The uptake experiment was conducted as described previously. HEK293 cells were plated at a density of 1.7 × 10^5 cells/cm^2 on 24-well plates and cultured for two days before uptake assay. The cells were pre-incubated with 0.5 ml of transport medium (TM) (125 mM NaCl, 4.8 mM KCl, 1.2 mM KH2PO4, 1.2 mM CaCl2, 1.2 mM MgSO4, 5.6 mM D-glucose, and 25 mM HEPES, pH 7.4) for an appropriate time at 37 °C. Cells for MATE1 assays were pre-incubated in TM containing 30 mM NH4Cl for 20 min to establish an outwardly directed H^+ gradient; this was done concomitantly with the pre-incubation with TKIs. […] Uptake was terminated by washing the cells three times with 0.5 ml of ice-cold TM, and the cells were solubilized in 0.25 ml of 0.01% (v/v) Triton-X. Radioactivity was measured with a liquid scintillation counter (Hitachi Aloka Medical, Ltd., Tokyo, Japan). […] Uptake was terminated by washing the cells three times with ice-cold TM, and intracellular [^14C]creatinine concentration was determined by the method described above.
Experiments were conducted at least twice, and the results are shown as representative values in individual experiments. Uptake by transporter-expressing cells was expressed as the cell-to-medium (C/M) ratio (μL/mg protein), obtained by dividing the uptake amount by the concentration of substrate in the TM. […]

The next series addresses T2, human OCT2 (Homo sapiens, UniProt O15244).
T2 construct: expressed in transfected cells; host or cells: HEK293
T2 sequence (O15244 1-555): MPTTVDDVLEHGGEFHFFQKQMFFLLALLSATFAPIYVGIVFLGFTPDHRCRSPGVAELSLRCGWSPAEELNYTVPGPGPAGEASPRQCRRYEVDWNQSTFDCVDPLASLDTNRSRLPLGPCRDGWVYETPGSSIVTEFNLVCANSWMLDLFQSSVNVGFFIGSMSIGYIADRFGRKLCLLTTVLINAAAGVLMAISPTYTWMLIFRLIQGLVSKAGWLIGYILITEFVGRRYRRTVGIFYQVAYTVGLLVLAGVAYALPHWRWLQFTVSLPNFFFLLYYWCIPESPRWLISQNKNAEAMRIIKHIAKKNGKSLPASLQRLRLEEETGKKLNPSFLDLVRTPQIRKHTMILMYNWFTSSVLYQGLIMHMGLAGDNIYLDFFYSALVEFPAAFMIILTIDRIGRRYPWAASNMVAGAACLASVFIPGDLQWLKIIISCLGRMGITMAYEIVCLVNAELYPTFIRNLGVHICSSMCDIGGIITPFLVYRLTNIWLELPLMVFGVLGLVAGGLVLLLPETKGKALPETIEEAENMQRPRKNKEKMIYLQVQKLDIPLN
As to the kind of experiment: Inhibition of [14C]creatinine uptake by HEK293/OCT2 cells. The series is classed as cell-based. The following applies: for IC50: 37 °C, pre/co-incubation, unit inferred, read-out: IC50 or Ki, OCT2.

A further series concerns the target T3, human MATE1 (Homo sapiens, UniProt Q96FL8).
T3 construct: expressed in transfected cells; host or cells: HEK293
T3 sequence (Q96FL8 1-570): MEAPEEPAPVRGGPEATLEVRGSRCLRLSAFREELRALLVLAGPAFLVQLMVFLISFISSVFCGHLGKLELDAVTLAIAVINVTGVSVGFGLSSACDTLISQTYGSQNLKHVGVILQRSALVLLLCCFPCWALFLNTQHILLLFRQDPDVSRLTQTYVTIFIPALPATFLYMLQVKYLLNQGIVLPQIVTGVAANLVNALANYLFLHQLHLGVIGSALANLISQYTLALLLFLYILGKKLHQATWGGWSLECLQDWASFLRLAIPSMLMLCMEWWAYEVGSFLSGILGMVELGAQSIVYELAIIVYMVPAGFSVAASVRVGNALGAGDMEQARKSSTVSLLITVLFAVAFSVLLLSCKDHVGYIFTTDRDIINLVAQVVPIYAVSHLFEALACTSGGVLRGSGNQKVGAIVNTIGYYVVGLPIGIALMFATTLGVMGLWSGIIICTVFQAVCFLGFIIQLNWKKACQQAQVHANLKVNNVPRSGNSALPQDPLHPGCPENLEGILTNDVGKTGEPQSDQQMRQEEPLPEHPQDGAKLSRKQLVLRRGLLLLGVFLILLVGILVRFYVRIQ
Briefly: Inhibition of [14C]creatinine uptake by HEK293/MATE1 cells. Type of series: cell-based.

Like-named read-outs stand apart in the source and are kept apart here.

The term Cmax denotes the peak of the concentration-time curve. In general, IC50 refers to the concentration that inhibits the measured activity by half.

T1 sequence (Q86VL8 1-566 isoform Q86VL8-3): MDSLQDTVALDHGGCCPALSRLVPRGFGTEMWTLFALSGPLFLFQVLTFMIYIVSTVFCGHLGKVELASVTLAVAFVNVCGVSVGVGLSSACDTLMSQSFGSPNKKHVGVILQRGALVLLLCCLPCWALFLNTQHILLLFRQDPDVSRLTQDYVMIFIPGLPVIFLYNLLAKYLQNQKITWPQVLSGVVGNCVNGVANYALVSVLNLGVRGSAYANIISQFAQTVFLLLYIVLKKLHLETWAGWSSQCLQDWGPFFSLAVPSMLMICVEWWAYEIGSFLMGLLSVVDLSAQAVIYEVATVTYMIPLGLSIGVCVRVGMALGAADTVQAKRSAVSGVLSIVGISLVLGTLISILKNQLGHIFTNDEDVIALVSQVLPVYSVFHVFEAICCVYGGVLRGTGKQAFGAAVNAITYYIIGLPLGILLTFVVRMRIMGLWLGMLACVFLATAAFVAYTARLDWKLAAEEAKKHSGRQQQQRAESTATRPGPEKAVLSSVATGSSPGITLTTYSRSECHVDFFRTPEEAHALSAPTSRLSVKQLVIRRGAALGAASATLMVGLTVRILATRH
Method for human MATE1: (§1) Cells were cultured in Dulbecco’s modified Eagle’s medium (DMEM) supplemented with 10% fetal bovine serum, 100 units/ml penicillin, 100 μg/ml streptomycin, 1 mM pyruvic acid, and 100 μg/ml zeocin for HEK293/OCT2 cells or 400 μg/mL G418 for HEK293/MATE1 and MDCKII/MATE1 cells at 37 °C in a humidified atmosphere of 5% CO2 in air.
The cells were incubated at 37 °C.
Uptake by transporter-expressing cells was expressed as the cell-to-medium (C/M) ratio (μL/mg protein), obtained by dividing the uptake amount by the concentration of substrate in the TM. MATE1- or OCT2-mediated uptake was obtained after subtraction of the uptake by mock cells.
Kinetic parameters for uptake were obtained using the Michaelis-Menten Eq. (2);2 v=Vmax×[C]/Km+[C] where v, Vmax, Km, and [C] are initial uptake rate, maximal uptake rate, Michaelis constant, and substrate concentration, respectively.
Method for human OCT2: as §1
The cells were incubated at 37 °C.
Experiments were conducted at least twice, and the results are shown as representative values in individual experiments. Uptake by transporter-expressing cells was expressed as the cell-to-medium (C/M) ratio (μL/mg protein), obtained by dividing the uptake amount by the concentration of substrate in the TM. MATE1- or OCT2-mediated uptake was obtained after subtraction of the uptake by mock cells.

As to `C[C@@H](Oc1cc(-c2cnn(C3CCNCC3)c2)cnc1N)c1c(Cl)ccc(F)c1Cl` [Crizotinib, crizotinib], in the series on OCT2 and MATE1, the “Prediction of SCr increase, Cmax,u” value is given as 14.5 ± 4.6%; the “Prediction of SCr increase, Cmax,u · Kp,uu” value is recorded as 25.3 ± 8.8%; the “Prediction of SCr increase, Ctrough,u” value is 11.7 ± 3.6%; the “Prediction of SCr increase, Ctrough,u · Kp,uu” value is listed as 21.1 ± 7.1%. In the series with OCT2 and MATE1 (listed as crizotinib), the “Prediction of SCr increase, Cmax,u” value was 14.5% and the “Prediction of SCr increase, Cmax,u · Kp,uu” value was 25.3%. Also, the “Predicted increase of SCr in the clinical context” value with OCT2 and MATE1 (summary statement of the prediction) is given as “more than 10%”. The “Clinically reported eGFR reduction” value in series [1] is listed as 23.9%. For the same compound, the Ctrough in series [2] is 708 nM. In series [3], the fu is given as 0.093. Also, in series [4], the “Cmax,u” value is 84.8 nM and the “Ctrough,u” value is 65.8 nM.

In the case of `COc1c(N2CC[C@@H](C3(N)CC3)C2)ccc2c(=O)c(C(=O)O)cn([C@@H]3C[C@@H]3F)c12` [DX-619], the “Reduction of creatinine clearance” value in the series on creatinine transporters was “up to 51.4%”.

With `COc1cc2ncnc(Nc3ccc(F)c(Cl)c3)c2cc1OCCCN1CCOCC1` [Gefitinib, gefitinib], the “Prediction of SCr increase, Cmax,u” value with OCT2 and MATE1 was 2.47 ± 1.05%. In addition, the Kp uu at 2 h, 1 μM in series [5] was 2.22 ± 0.05. Further, in [2], the t1/2 was 23.8 h and the maximum concentration (Cmax) was 1040 nM. The fu in series [3] was 0.09. Besides, the “Cmax,u” value in series [4] was 93.6 nM.

Turning to `Cc1ccc(NC(=O)c2ccc(CN3CCN(C)CC3)cc2)cc1Nc1nccc(-c2cccnc2)n1` [Imatinib, imatinib], the Kp uu at 2 h, 1 μM in series [5] is 2.39 ± 0.29.

`CC(=O)[O-].C[n+]1ccc(-c2ccccc2)cc1` [MPP^+, N-methyl-4-phenylpyridinium acetate]: the “Uptake of MPP+ by HEK293/MATE2K cells” value at MATE2K (HEK293/MATE2K cells) was 19.1 μL/mg/1 min. The “Uptake of MPP+ by mock cells” value on MATE2K (mock cells) is reported as 5.76 μL/mg/1 min.

Take `Cc1ccc(Nc2nccc(N(C)c3ccc4c(C)n(C)nc4c3)n2)cc1S(N)(=O)=O` [Pazopanib, pazopanib]: in the series on OCT2 and MATE1, the “Prediction of SCr increase, Cmax,u” value is reported as 1.16 ± 0.87%; the “Prediction of SCr increase, Cmax,u · Kp,uu” value is 1.86 ± 0.95%; the “Prediction of SCr increase, Ctrough,u” value is reported as 0.837 ± 0.842%; the “Prediction of SCr increase, Ctrough,u · Kp,uu” value was 1.22 ± 0.87%. Further, the “Inhibition of [14C]creatinine uptake by HEK293/OCT2 cells (in words)” value on human OCT2 (pazopanib 1, 3, 10, 30 μM, [14C]creatinine 2.6 μM, 1 min) is on record as “not by pazopanib”. Further, the “Ctrough/IC50 or Ki, OCT2” value at human OCT2 (ratio of trough (unbound) concentration to IC50 or Ki for OCT2) was 0.0000386. Further, the Kp uu at 2 h, 1 μM in series [5] amounted to 2.05 ± 0.14. Further, the IC50 on human MATE1 ([14C]creatinine 2.6 μM, 2 min, 37 °C, pre/co-incubation, unit inferred, read-out: IC50 or Ki, MATE1) turned out to be 0.47 ± 0.032 µM. Also, the “Ctrough/IC50 or Ki, MATE1” value at human MATE1 (ratio of trough (unbound) concentration to IC50 or Ki for MATE1) is on record as 0.0114. For the same compound, in series [2], the t1/2 was 30.9 h, the peak concentration (Cmax) was 95100 nM and the Ctrough was 50600 nM. The fu in series [3] is listed as 0.000106. The “Cmax,u” value in [4] was 10.1 nM.

Take `CNC(=O)c1cc(Oc2ccc(NC(=O)Nc3ccc(Cl)c(C(F)(F)F)c3)cc2)ccn1` [Sorafenib, sorafenib]: in the series with OCT2 and MATE1, the “Prediction of SCr increase, Cmax,u” value is recorded as 1.47 ± 0.90% and the “Prediction of SCr increase, Cmax,u · Kp,uu” value is listed as 3.10 ± 1.17%. Also, the 50% inhibitory concentration (IC50) at human OCT2 ([14C]creatinine 2.6 μM, 1 min) was 40.8 ± 9.3 µM. In addition, the Kp uu at 2 h, 1 μM in series [5] amounted to 2.76 ± 0.27. For the same compound, in [2], the t1/2 is 28.1 h and the peak concentration (Cmax) was 14600 nM. In series [3], the fu is recorded as 0.0029.

In the case of `CCN(CC)CCNC(=O)c1c(C)[nH]c(/C=C2\C(=O)Nc3ccc(F)cc32)c1C` [Sunitinib, sunitinib], in the series on OCT2 and MATE1, the “Prediction of SCr increase, Cmax,u” value is 1.65 ± 0.92%; the “Prediction of SCr increase, Cmax,u · Kp,uu” value is recorded as 2.73 ± 1.10%; the “Prediction of SCr increase, Ctrough,u” value is 1.19 ± 0.87%; the “Prediction of SCr increase, Ctrough,u · Kp,uu” value is 1.86 ± 0.95%. The IC50 at human OCT2 ([14C]creatinine 2.6 μM, 1 min) was found to be 0.266 ± 0.03 µM. Besides, the Kp uu at 2 h, 1 μM in [5] was 3.93 ± 0.15. Also, in series [2], the t1/2 is 40 to 60 h, the Cmax is 136 nM and the Ctrough is 82.9 nM. Besides, in series [4], the “Cmax,u” value is 6.8 nM and the “Ctrough,u” value is 4.14 nM.

The values above are taken from article PMC6006426, “Effect of tyrosine kinase inhibitors on renal handling of creatinine by MATE1” (Scientific Reports, 2018).
